pKi: −log10 of the molar value. Read-outs that look alike come from different tables or passages of the source.
Experiments:
5-HT1A receptor [1] = molecular target: T1, 5-HT1A receptor (Homo sapiens, UniProt P08908); experiment: 5-HT1A receptor radioligand competition assay (SPA); assay type: binding
T1 construct: purchased Perkin Elmer 6110501400UA
T1 sequence (P08908 1-422): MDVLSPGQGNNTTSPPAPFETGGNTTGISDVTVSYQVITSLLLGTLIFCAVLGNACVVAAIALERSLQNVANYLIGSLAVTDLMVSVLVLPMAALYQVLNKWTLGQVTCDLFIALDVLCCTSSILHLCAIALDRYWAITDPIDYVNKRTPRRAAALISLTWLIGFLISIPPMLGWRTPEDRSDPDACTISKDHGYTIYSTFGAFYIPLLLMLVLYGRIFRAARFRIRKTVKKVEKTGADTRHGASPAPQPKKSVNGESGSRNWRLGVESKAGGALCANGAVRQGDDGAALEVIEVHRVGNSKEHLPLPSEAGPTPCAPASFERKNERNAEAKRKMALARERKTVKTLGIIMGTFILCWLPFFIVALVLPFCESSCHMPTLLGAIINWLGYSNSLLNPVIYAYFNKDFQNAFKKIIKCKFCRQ

[2] = molecular target: T2, human serotonin transporter (SERT) (Homo sapiens, UniProt P31645); experiment: biochemical; assay type: binding
T2 construct: purchased PerkinElmer RBHSTM400UA

5-HT1B (h) = molecular target: T3, 5-HT1B (h) (Homo sapiens, UniProt P28222); experiment: Competition assay to measure binding affinity at 5-HT1B receptor; conditions: test ligand 10 μM; [3H]GR125743 1 nM
T3 construct: host or cells: Chem-1 (RBL) cells

5-HT1D (r) = molecular target: T4, 5-HT1D (r) (Rattus norvegicus, UniProt P28565); experiment: Competition assay to measure binding affinity at 5-HT1D receptor; conditions: test ligand 10 μM; [3H]serotonin 1 nM
T4 construct: host or cells: CHO cells

5-HT2B (h) = molecular target: T5, 5-HT2B (h) (Homo sapiens, UniProt P41595); experiment: Competition assay to measure binding affinity at 5-HT2B receptor; conditions: test ligand 10 μM; [3H]mesulergine 2 nM
T5 construct: host or cells: CHO cells

5-HT2C (h) = molecular target: T6, 5-HT2C (h) (Homo sapiens, UniProt P28335); experiment: Competition assay to measure binding affinity at 5-HT2C receptor; conditions: test ligand 10 μM; [125I](±)DOI 0.1 nM
T6 construct: host or cells: HEK-293 cells
T6 sequence (P28335 33-458): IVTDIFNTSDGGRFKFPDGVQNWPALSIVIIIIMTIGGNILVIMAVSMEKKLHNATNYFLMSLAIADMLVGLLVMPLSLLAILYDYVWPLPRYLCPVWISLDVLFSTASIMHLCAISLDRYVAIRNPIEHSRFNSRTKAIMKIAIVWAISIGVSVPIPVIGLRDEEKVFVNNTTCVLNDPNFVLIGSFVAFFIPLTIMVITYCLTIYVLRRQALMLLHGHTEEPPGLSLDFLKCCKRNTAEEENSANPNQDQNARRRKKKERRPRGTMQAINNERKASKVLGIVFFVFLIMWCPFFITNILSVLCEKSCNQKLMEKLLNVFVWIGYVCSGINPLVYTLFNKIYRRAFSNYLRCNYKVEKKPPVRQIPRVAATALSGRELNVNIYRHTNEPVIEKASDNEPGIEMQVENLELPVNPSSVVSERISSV

5-HT7 (h) = molecular target: T7, 5-HT7 (h) (Homo sapiens, UniProt P34969); experiment: Competition assay to measure binding affinity at 5-HT7 receptor; conditions: test ligand 10 μM; [3H]LSD 4 nM
T7 construct: host or cells: HEK-293 cells

alpha2A (h) = molecular target: T8, alpha2A (h) (Homo sapiens, UniProt P08913); experiment: Competition assay to measure binding affinity at alpha2A receptor; conditions: test ligand 10 μM; [3H]RX 821002 1 nM; read-out: α-2A, percent of control-specific binding
T8 construct: host or cells: CHO cells
T8 sequence (P08913 1-465): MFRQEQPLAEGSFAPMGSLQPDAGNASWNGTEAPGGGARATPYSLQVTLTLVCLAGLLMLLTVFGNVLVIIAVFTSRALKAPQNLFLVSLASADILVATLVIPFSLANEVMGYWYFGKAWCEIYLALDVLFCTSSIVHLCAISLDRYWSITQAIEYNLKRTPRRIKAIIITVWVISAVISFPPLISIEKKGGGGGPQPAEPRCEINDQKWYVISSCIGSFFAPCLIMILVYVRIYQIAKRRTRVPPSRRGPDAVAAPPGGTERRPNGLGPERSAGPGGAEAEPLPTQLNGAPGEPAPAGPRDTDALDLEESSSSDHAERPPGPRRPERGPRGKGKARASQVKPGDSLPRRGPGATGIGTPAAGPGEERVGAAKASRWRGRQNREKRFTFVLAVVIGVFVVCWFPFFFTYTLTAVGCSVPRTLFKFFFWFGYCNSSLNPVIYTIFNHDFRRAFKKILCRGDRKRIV

D2 (h) = molecular target: T9, D2 (h) (Homo sapiens, UniProt P14416); experiment: Competition assay to measure binding affinity at D2L receptor; conditions: test ligand 10 μM; [3H]methylspiperone 0.3 nM
T9 construct: host or cells: HEK-293 cells

D3 (h) = molecular target: T10, D3 (h) (Homo sapiens, UniProt P35462); experiment: Competition assay to measure binding affinity at D3 receptor; conditions: test ligand 10 μM; [3H]methylspiperone […]
T10 construct: host or cells: CHO cells

DAT (h) = molecular target: T11, DAT (h) (Homo sapiens, UniProt Q01959); experiment: Competition assay to measure binding affinity at dopamine transporter (DAT); conditions: test ligand 10 μM; [3H]BTCP 4 nM
T11 construct: host or cells: CHO cells

MT1 (ML1A) (h) = molecular target: T12, MT1 (ML1A) (h) (Homo sapiens, UniProt P48039); experiment: Competition assay to measure binding affinity at MT1 receptor; conditions: test ligand 10 μM; [125I]2-iodomelatonin 0.01 nM
T12 construct: host or cells: CHO cells

NET (h) = molecular target: T13, NET (h) (Homo sapiens, UniProt P23975); experiment: Competition assay to measure binding affinity at norepinephrine transporter (NET); conditions: test ligand 10 μM; [3H]nisoxetine 1 nM
T13 construct: host or cells: CHO cells

5-HT2A receptor = 5-HT2A receptor (Homo sapiens, UniProt P28223); experiment: 5-HT2A receptor radioligand competition assay (SPA)
5-HT1A receptor [3] = molecular target: T1, 5-HT1A receptor; experiment: Functional 5-HT1A receptor cAMP assay in CHO-K1/5-HT1A/Gα15 cells; assay type: cell-based; conditions: +5-HT1A cells, 4 μM forskolin, FIGS. 37B-37H
[4] = competition with 0.5 nM 8-hydroxy-DPAT [3H], test compound 3 nM to 1 mM, read-out: 5-HT1A, Ki

T11 sequence (Q01959 whole entry): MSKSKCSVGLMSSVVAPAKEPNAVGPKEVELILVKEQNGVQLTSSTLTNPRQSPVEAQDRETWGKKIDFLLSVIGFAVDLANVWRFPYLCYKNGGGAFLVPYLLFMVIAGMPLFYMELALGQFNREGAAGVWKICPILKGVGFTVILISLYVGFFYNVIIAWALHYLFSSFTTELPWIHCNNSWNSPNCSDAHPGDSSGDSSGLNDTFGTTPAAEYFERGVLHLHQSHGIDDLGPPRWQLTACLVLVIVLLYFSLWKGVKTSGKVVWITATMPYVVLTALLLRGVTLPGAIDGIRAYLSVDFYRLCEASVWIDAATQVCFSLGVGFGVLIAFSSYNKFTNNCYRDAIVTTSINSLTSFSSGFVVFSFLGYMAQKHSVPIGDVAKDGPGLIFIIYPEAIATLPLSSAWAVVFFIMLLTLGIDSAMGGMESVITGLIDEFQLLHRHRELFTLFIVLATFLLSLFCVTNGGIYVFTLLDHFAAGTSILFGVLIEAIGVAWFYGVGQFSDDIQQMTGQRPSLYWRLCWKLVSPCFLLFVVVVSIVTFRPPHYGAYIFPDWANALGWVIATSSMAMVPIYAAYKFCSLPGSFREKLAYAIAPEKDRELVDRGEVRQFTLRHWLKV
T7 sequence (P34969 whole entry): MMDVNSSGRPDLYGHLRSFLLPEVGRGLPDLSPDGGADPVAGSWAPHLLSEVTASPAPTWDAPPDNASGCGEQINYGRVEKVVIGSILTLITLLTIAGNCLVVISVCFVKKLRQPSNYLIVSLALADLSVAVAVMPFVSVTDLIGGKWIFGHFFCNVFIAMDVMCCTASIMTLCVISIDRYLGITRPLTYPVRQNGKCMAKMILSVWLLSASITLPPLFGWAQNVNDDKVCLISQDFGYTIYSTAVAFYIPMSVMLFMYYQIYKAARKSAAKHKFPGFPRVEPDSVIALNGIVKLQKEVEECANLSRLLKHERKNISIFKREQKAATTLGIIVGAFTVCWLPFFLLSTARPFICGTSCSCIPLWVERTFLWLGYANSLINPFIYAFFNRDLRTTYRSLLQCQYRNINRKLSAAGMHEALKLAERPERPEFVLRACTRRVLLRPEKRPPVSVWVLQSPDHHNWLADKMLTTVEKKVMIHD
T12 sequence (P48039 whole entry): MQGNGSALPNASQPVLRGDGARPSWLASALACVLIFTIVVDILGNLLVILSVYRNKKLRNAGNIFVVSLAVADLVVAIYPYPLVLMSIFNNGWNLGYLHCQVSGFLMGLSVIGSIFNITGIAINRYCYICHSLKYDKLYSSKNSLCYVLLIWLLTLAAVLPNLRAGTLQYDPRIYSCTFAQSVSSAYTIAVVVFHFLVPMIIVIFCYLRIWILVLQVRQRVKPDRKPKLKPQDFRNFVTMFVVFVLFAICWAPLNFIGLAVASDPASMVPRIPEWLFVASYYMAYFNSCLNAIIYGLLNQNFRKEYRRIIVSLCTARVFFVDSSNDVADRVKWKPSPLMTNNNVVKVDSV
T2 sequence (P31645 whole entry): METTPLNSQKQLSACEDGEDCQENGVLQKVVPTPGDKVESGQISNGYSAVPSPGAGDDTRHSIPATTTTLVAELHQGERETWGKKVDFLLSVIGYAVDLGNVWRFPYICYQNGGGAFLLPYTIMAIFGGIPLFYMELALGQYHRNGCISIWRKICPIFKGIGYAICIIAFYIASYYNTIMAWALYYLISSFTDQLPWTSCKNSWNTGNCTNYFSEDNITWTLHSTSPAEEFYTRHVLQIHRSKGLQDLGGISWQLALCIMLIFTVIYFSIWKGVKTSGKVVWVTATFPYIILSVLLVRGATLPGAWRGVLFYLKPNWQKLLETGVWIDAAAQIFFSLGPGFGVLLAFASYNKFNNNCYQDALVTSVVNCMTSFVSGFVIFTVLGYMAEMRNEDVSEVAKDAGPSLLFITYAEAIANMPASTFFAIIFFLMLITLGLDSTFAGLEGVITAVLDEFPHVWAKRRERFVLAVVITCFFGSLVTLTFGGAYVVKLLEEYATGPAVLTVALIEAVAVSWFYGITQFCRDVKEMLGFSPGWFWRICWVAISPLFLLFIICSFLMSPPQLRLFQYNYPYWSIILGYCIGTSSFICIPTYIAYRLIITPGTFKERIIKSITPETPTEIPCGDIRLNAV
T10 sequence (P35462 whole entry): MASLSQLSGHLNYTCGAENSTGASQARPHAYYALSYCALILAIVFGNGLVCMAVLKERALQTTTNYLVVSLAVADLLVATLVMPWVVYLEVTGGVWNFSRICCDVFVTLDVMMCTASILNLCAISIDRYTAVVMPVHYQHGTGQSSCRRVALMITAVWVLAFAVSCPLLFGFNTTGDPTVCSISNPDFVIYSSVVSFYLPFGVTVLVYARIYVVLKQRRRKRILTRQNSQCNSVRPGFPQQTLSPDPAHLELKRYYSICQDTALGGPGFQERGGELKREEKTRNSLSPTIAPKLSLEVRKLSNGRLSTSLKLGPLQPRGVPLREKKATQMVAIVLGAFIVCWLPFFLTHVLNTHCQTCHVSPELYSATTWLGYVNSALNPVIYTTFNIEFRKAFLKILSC
T9 sequence (P14416 whole entry): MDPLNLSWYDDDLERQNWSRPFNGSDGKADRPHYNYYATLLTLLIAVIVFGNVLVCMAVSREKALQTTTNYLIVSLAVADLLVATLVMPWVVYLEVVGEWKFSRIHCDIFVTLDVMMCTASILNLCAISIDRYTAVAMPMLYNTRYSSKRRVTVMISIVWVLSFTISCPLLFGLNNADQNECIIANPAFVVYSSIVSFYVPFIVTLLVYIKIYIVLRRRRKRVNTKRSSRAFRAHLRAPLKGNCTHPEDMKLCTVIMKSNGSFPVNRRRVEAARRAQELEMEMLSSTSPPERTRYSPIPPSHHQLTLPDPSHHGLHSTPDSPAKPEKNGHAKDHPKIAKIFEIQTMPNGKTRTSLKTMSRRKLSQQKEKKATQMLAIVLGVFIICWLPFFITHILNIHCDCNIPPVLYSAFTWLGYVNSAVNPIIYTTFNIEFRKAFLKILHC
T13 sequence (P23975 whole entry): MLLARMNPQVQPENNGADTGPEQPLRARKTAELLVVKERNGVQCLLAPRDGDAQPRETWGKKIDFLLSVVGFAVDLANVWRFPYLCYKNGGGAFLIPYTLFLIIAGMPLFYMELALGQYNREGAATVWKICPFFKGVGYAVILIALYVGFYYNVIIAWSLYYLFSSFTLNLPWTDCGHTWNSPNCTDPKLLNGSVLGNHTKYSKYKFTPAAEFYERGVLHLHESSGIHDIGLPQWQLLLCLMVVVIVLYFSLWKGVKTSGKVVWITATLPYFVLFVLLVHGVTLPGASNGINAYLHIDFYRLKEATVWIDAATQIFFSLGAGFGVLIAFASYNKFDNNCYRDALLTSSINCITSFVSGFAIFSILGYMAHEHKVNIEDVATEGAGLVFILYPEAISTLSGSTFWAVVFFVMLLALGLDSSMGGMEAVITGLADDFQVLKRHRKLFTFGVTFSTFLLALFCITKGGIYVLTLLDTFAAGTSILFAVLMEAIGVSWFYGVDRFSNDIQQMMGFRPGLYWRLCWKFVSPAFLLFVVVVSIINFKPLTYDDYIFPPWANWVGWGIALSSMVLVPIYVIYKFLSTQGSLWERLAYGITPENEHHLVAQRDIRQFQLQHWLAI
T4 sequence (P28565 whole entry): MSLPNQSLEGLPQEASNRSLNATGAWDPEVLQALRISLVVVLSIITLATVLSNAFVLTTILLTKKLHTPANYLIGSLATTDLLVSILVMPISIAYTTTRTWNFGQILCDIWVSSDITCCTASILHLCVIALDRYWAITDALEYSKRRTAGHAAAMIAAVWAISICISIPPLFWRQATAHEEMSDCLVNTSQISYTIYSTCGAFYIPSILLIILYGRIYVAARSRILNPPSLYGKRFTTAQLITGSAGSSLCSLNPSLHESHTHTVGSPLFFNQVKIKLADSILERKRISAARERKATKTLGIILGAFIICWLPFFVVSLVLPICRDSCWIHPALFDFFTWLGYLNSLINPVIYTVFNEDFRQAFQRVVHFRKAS
T5 sequence (P41595 whole entry): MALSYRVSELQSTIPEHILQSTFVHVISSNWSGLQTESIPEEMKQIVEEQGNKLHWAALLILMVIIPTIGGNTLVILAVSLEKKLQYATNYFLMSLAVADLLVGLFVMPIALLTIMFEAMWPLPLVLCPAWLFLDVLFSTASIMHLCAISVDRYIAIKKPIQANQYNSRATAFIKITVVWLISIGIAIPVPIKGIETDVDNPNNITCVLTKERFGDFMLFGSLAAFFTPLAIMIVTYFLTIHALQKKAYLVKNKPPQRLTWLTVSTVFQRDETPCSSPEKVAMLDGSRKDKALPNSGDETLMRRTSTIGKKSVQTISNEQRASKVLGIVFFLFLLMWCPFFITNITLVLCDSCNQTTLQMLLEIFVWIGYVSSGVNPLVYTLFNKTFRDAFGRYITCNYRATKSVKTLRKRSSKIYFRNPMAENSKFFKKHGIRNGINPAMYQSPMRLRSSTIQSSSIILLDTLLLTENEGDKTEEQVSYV
T3 sequence (P28222 whole entry): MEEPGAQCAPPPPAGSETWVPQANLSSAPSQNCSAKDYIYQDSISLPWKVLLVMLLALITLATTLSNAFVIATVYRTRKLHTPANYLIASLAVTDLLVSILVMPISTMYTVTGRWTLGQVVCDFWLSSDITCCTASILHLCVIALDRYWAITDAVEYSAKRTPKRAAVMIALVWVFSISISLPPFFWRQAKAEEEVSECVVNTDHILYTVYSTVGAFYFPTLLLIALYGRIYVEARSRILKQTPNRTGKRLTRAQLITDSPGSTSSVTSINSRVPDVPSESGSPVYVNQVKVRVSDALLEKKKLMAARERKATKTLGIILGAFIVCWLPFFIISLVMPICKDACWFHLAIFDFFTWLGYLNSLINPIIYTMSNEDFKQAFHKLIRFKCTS

SMILES | pKi (5-HT1A receptor [1]) | pKi [2] | HT1B, percent of control-specific binding (5-HT1B (h)) [%] | HT1D, percent of control-specific binding (5-HT1D (r)) [%] | HT2B, percent of control-specific binding (5-HT2B (h)) [%] | HT2C, percent of control-specific binding (5-HT2C (h)) [%] | HT7, percent of control-specific binding (5-HT7 (h)) [%] | inhibition at 10 µM (alpha2A (h)) [%] | D2, percent of control-specific binding (D2 (h)) [%] | D3, percent of control-specific binding (D3 (h)) [%] | DAT, percent of control-specific binding (DAT (h)) [%] | MT1, percent of control-specific binding (MT1 (ML1A) (h)) [%] | NET, percent of control-specific binding (NET (h)) [%] | pKi (5-HT2A receptor) | pKi (5-HT1A receptor [1]; [4]) | 5-HT1A receptor engagement (change in cAMP levels), in words (5-HT1A receptor [3])
CC(Cc1ccc2c(c1)OCCO2)NCc1ccc2c(c1)OCO2 (stereo not shown) [A(XII)] | 5.92 | 5.62 | 0 | 24 | 86 | 31 | 51 | 66 | 26 | 58 | 92 | 6 | 69 | 4.59 |  | 
CC(Cc1ccc2c(c1)OCCO2)NCc1ccc2c(c1)OCCO2 (stereo not shown) [A(XIII)] | 5.82 | 5.54 | 11 | 38 | 85 | 34 | 52 | 77 | 28 | 54 | 90 | 12 | 50 | 3.99 |  | 
O=C(Cc1cc2c(cc1Br)OCO2)NCCO [A(XIX)] |  | < 3.00 | 0 | 0 | 7 | 22 | 1 | 10 | 0 | 0 | 0 | 15 | 0 | 4.73 | 3.23 | 
CC(C)(C)OC(=O)NC1CN(CCc2ccc3c(c2)OCO3)C1 [A(XV)] |  | 4.19 | 1 | 29 | 58 | 36 | 58 | 6 | 0 | 53 | 39 | 0 | 11 | 4.07 | 5.51 | 
CC(Cc1ccc2c(c1)OCCO2)N1CC(NC(=O)OC(C)(C)C)C1 (stereo not shown) [A(XVI)] |  | 4.24 | 27 | 37 | 90 | 79 | 62 | 86 | 21 | 82 | 16 | 3 | 24 | 4.41 | 5.85 | 
CC(Cc1ccc2c(c1)OCCO2)NC1CCC1 (stereo not shown) [A(XVII)] | 4.63 | 5.77 | 0 | 0 | 47 | 20 | 24 | 64 | 2 | 19 | 84 | 1 | 18 | 3.73 |  | 
N#CC(Cc1ccc2c(c1)OCO2)NC1CCC1 (stereo not shown) [A(XX)] |  | 3.54 | 0 | 14 | 53 | 41 | 26 | 3 | 24 | 0 | 39 | 14 | 1 | 4.38 | 3.91 | 
COc1cc2c(cc1CC(=O)N1CCCC1)OCO2 [A(XXI)] |  | 3.07 | 0 | 14 | 33 | 32 | 20 | 0 | 0 | 7 | 29 | 7 | 0 | 3.47 | 4.15 | 
CC(Cc1ccc2c(c1)OCCO2)NCc1ccccc1 (stereo not shown) [A(XXIII)] | 5.25 | 5.56 | 0 | 29 | 66 | 42 | 34 | 60 | 9 | 38 | 91 | 3 | 88 | 4.15 |  | 
CN(C)CCc1c[nH]c2cccc(O)c12 [psilocin] |  |  |  |  |  |  |  |  |  |  |  |  |  |  |  | reduction in cAMP levels
NCCc1c[nH]c2ccc(O)cc12 [serotonin, reference compound] |  |  | 97 | 101 |  |  |  | 18 | 15 | 73 | 8 | 7 | −3 |  |  | reduction in cAMP levels
